Like-named read-outs stand apart in the source and are kept apart here. Square brackets hold non-standard residues; d marks the D form. Peptide text beside a SMILES is read from it.
Tests used:
[1] = system: HMLER; test: cells; format: cell-based, human; details: 2D culture, MTT, 72 h incubation; library peptides average of two independent experiments (n = 2); D-enantiomers and small molecules replicated six times; read-out: IC50 (µM) HMLER
Source text: (§1) […], and MCF-10A cells were maintained in MEGM with supplements and growth factors bovine pituitary extract, hydrocortisone, human epidermal growth factor, insulin, and gentamicin/amphotericin-B.

[2] = system: HMLER‐shEcad; test: cells; format: cell-based, human; details: 2D culture, MTT, 72 h incubation; library peptides average of two independent experiments (n = 2); D-enantiomers and small molecules replicated six times; read-out: IC50 (µM) HMLER-shEcad
Source text: as §1

[3] = system: MCF‐10A; test: cells; format: cell-based, human; details: non-cancerous cells; 2D culture, MTT, 72 h incubation; library peptides n = 2; D-enantiomers and small molecules replicated six times; read-out: IC50 (µM) MCF-10A
Source text: as §1

[4] = system: U2OS; format: cell-based, human; details: 2D culture, MTT, 72 h incubation; library peptides n = 2; D-enantiomers and small molecules replicated six times; read-out: IC50 (µM) U2OS
[5] = system: HEK293T; test: cells; format: cell-based, human; details: non-cancerous cells; 2D culture, MTT, 72 h incubation; library peptides n = 2; D-enantiomers and small molecules replicated six times; read-out: IC50 (µM) HEK293T
[6] = system: human red blood cells; test: Haemolysis (human red blood cells); format: cell-based; details: PBS, 37 °C, 1 h
Experimental: Fresh human red blood cells were obtained from Interstate Blood Bank, Inc., and thoroughly washed in PBS until the supernatant was clear. The peptide was serially diluted in PBS starting at a concentration of 200 µM. […] As a positive lysis control, 1% triton was used. […] After centrifugation, 10 µL of supernatant was transferred to 90 µL of ddH2O in a fresh 96‐well plate.

[7] = Tryptophan fluorescent binding assay; details: tryptophan fluorescence; 50 µM peptide, lipid titrated 0-5000 µM; phosphate buffered saline 1X, pH 7.4; values as lipid per peptide
How it was run: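 Peptides at 50 µM were incubated for 1 h with increasing amounts of 3:1 POPC:POPG unilamellar vesicles in 1X phosphate buffered saline, pH 7.4. Tryptophan emission (300–450 nm, excitation 280 nm) was recorded on a Cytation 5 multi-mode reader. The lipid concentration giving 50 % peptide binding was determined and reported as a lipid-to-peptide ratio.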

[8] = ANTS/DPX liposome leakage assay; details: 0.5 mM vesicles, peptide 0-20 µM, 3 h incubation, lipid per peptide
How it was run: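 The value is the lipid-to-peptide ratio giving 50% ANTS/DPX release, with fluorescence (350/510 nm) read after 3 h and scaled to 10% Triton as full leakage. Peptides were titrated into 0.5 mM LUVs of POPC or 3POPC/1POPG (0.1 µm, free dye removed by gel filtration) in PBS at pH 7.4 or 4.8.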

[9] = system: HMLER‐shEcad; test: Resistance formation after prolonged drug exposure, 2D culture; format: cell-based, human; details: 2D HMLER‐shEcad after 28 days co‐incubation with 0.4 µM d‐DHK
Experimental: Cancer stem cells can survive treatment, gain resistance, and reseed tumors, presenting a major challenge for chemotherapy.^[ [2] ^] […] Drugs were added with medium every 3–4 days, maintaining smooth cell growth, and 125 000 cells were split into new T25 flasks with a total volume of 5 mL once per week.

[10] = Tryptophan fluorescence and circular dichroism binding to vesicles; details: binding to both POPC and POPG vesicles; 50 µM peptide, 10 mM phosphate buffer, pH 7.0
Experimental: 50 µM ACP peptides and varied concentrations (concentrations: 0, 25, 50, 100, 150, 200, 250, 500, 1250, and 2500 µM) of POPC or POPC:POPG (3:1 ratio) large unilamellar vesicles were prepared in 10 mM phosphate buffer (pH 7.0). The solutions were measured after 1 h of incubation. Excitation was fixed at 280 nm (slit 9 nm) and emission was collected from 300 to 450 nm (slit 9 nm). The spectra were recorded using Cytation 5 Cell Imaging Multi‐Mode Reader from BioTek and were averaged by three scans.
Extended Data Figure 9 | Peptide-lipid interactions. Conformational change of tryptophan fluorescence quenching of 50 µM DHK peptide with titrated a, POPC or b, POPG LUV concentration (0, 12.5, 25, 50, […]
POPC or d, POPG LUV against elevated temperature (20, 45, 70, and 95 °C). The black solid line represents peptide-only in buffer at 20 °C. All the experiments were performed in 10 mM phosphate buffer, pH 7.0.
(1 picture or pasted object on this page, not shown here)

[11] = system: HMLER‐shEcad tumorspheres; test: cells; format: cell-based, human; details: 3D multicellular spheroids; reducing tumorsphere cell viability by 90%; read-out: IC90 against HMLER‐shEcad tumorspheres
[12] = system: MCF‐10A mammospheres; test: Mammosphere viability assay (TOX8); format: cell-based, human; details: 3D non‐tumorigenic mammospheres
[13] = system: various; details: read-out: IC50 [µM], various; 2D and 3D tumorspheres; summary of Figures 2, 3 and 5
Source text: The final concentration of DMSO in each well was either 0.5% or 0% and this amount was present in the untreated control.

[14] = system: MCF‐7; details: 2D; ref [11], [19], [47]; cited from earlier work
Source text: (§2) Table 1 ACP activity comparison. Reported in vitro anticancer activity (IC50) of ACPs | column: IC50 [µM]

[15] = cited from earlier work
Source text: (§3) Table 1 ACP activity comparison. Reported in vitro anticancer activity (IC50) of ACPs | column: Assay and Notes

[16] = system: various; details: 2D; ref [70]; cited from earlier work
Source text: as §2

[17] = system: HCT116; details: 2D; ref [69]; cited from earlier work
Source text: as §2

[18] = system: A20, AT84, MRC‐5; details: ref [22], [23], [57], [63]; cited from earlier work
Source text: as §2

[19] = system: A549; details: 2D; ref [68]; cited from earlier work
Source text: as §2

[20] = system: tumor in mouse; details: dose: 25 mg kg^−1; ref [68]; cited from earlier work
Source text: as §3

[21] = PBS 1X pH 7.4, high ratio = more potent

CC(C)C[C@H](NC(=O)CN)C(=O)N[C@@H](CC(C)C)C(=O)N[C@@H](CC(=O)O)C(=O)N[C@@H](CC(C)C)C(=O)N[C@@H](CC(C)C)C(=O)N[C@@H](Cc1c[nH]cn1)C(=O)N[C@@H](CC(C)C)C(=O)N[C@@H](CC(C)C)C(=O)N[C@@H](CC(C)C)C(=O)N[C@@H](CCCCN)C(=O)N[C@@H](C)C(=O)N[C@@H](C)C(=O)NCC(=O)N[C@@H](Cc1c[nH]c2ccccc12)C(N)=O [DHK] (H-GLLDLLHLLLKAAGW-NH2)
IC50 [1]: 1.75 ± 0.49 µM | IC50 [2]: 1.02 ± 0.12 µM | IC50 [3]: 5.05 ± 1.34 µM | IC50 [4]: 20.4 ± 2.05 µM | IC50 [5]: 7.3 ± 0.42 µM | HC50 ([6]; one value for DHK, d‐DHK and d‐EEK together): 14 ± 5 µM | Lipid Concentration-induced 50% Peptide Binding (L/P), 3POPC/1POPG Vesicle [7]: 0.38 L/P | Lipid Concentration-induced 50% Peptide Binding (L/P), POPC Vesicle [7]: 0.20 L/P | Peptide Concentration-induced 50 % ANTS/DPX leakage at pH 4.8 (L/P), 3POPC/1POPG Vesicle ([8]; HCl-adjusted PBS 1X pH 4.8): 183 L/P | Peptide Concentration-induced 50 % ANTS/DPX leakage at pH 4.8 (L/P), POPC Vesicle ([8]; HCl-adjusted PBS 1X pH 4.8): 47 L/P | Peptide Concentration-induced 50 % ANTS/DPX leakage at pH 7.4 (L/P), 3POPC/1POPG Vesicle [8, 21]: 469 L/P | Peptide Concentration-induced 50 % ANTS/DPX leakage at pH 7.4 (L/P), POPC Vesicle [8, 21]: 747 L/P | shift in IC50 after prolonged exposure to ACP [9]: no shift in IC50 | ∆G binding [10]: -8.8 ± 1.2 kcal/mol

CC(C)C[C@H](NC(=O)CN)C(=O)N[C@@H](CC(C)C)C(=O)N[C@@H](CCC(=O)O)C(=O)N[C@@H](CC(C)C)C(=O)N[C@@H](CC(C)C)C(=O)N[C@@H](CCC(=O)O)C(=O)N[C@@H](CC(C)C)C(=O)N[C@@H](CC(C)C)C(=O)N[C@@H](CC(C)C)C(=O)N[C@@H](CCCCN)C(=O)N[C@@H](C)C(=O)N[C@@H](C)C(=O)NCC(=O)N[C@@H](Cc1c[nH]c2ccccc12)C(N)=O [EEK] (H-GLLELLELLLKAAGW-NH2)
IC50 [3]: > 200 µM | IC90 [11]: 23 ± 3 µM | IC90 against MCF‐10A mammospheres [12]: 141 ± 11 µM | human red blood cell lysis [6]: only minimal human red blood cell lysis below 90 µM | IC50 [13]: 1 to 27 µM

CC(C)[C@H](NC(=O)[C@H](CCCCN)NC(=O)[C@@H](NC(=O)[C@H](CCCCN)NC(=O)[C@@H](NC(=O)[C@H](CCCCN)NC(=O)[C@@H](NC(=O)[C@@H]1CCCN1C(=O)[C@H]1CCCN1C(=O)[C@@H](NC(=O)[C@H](CCCCN)NC(=O)[C@@H](NC(=O)[C@H](CCCCN)NC(=O)[C@@H](NC(=O)[C@H](CCCCN)NC(=O)[C@@H](NC(=O)[C@@H](N)CCCCN)C(C)C)C(C)C)C(C)C)C(C)C)[C@@H](C)O)C(C)C)C(C)C)C(=O)N[C@@H](CCCCN)C(N)=O [SVS‐1] (H-KVKVKVKV[dP]PTKVKVKVK-NH2; N-terminus and C-terminus assumed)
IC50 [14]: 11 µM | drug resistance note ([15]; ref [11], [19], [47]): 2D; in vitro drug resistance was observed

Aurein 1.2
IC50 [16]: 10 to 100 µM

LL37
IC50 [17]: 40 µM | toxicity note ([15]; ref [69]): 2D; Vascular toxicity

LTX‐315
IC50 [18]: 8 to 34 µM

Magainin II
IC50 [19]: 45 µM | outcome in mouse xenograft model [20]: 2D and mouse xenograft model (dose: 25 mg kg^−1); The tumor in mouse was smaller and still growing in 40 days

Source: article PMC9069370, “Integrated Design of a Membrane‐Lytic Peptide‐Based Intravenous Nanotherapeutic Suppresses Triple‐Negative Breast Cancer” (Advanced Science, 2022)
